Where two headings read alike, the source gives them in different places.

In test [1] the test system is BK virus. Kind of test: Antiviral activity against BK virus in RPTEC cells (viral DNA by qPCR, 5 days). Type of test: cell-based. The note with it: for EC50: Betapolyomavirus hominis, RPTEC, RPTEC cells. The procedure: In order to test the activity of CMX001 to inhibit replication of BK virus, stocks of BK virus were prepared in HFF cells and dilutions of the virus stocks were used to infect primary human renal tubular epithelial cells (RPTECs). CMX001 were then added to the wells containing the infected cells and the plates were incubated for 5 days. Total DNA was prepared from the plates and viral DNA was quantified by qPCR.
(In general: Quantitative PCR measures a nucleic acid by following its amplification.)

For test [2], the system named is Caki-1. Kind of test: Cell proliferation assay (MTS or SRB), Caki-1. Type of test: cell-based. The note with it: Homo sapiens, 72 h; Caki-1, Kidney, 3 days; read-out: IC50 (cell growth inhibition). As for the experimental part:
(§1) In vitro cell proliferation assays were performed using a 96-well plate based MTSassay (CellTiter 96° AqueousOne Solution Cell Proliferation Assay, Promega) or SRB (Sulforhodamine-B) assay (1-3). Briefly, cells were plated in 100 μl medium on day 0 in 96-well microtiter plates (Falcon #3072). On day 1, 10 μl of serial dilutions of each compound (Nine 1:2 dilutions with a starting concentration of 100 μM; in some cases, a starting concentration of 400 μM (CMX001 or Cidofovir) or 1 μM (some standard agents)) were added in triplicates to the plates. For standard agents using DMSO as solvent, serial dilutions of DMSO with a starting concentration of 0.5% were also included as a vehicle control.
(§2) After incubation for 3 days at 37° C. in a humidified incubator, viable cells were measured either by MTS or SRB assay. For MTS assay, 20 μl of a 20:1 mixture of (3-(4,5-dimethylthiazol-2-yl)-5-(3-carboxymethoxyphenyl)-2-(4-sulfophenyl)-2H-tetrazolium, inner salt (MTS, 2 mg/ml) and an electron coupling reagent, phenazine methosulfate (PMS, 0.92 mg/ml in DPBS), was added to each well and incubated for 3 hours at 37° C. Absorbance was measured using a BioTek Synergy™ HT Multiple Detection microplate reader at 490 nm. For SRB assay, cells were fixed in situ with 50 μL of cold trichloroacetic acid (TCA, final concentration at 10% w/v) for 60 minutes. Cells were then washed 5 times with H2O and air-dried.
(§3) Next, cells were stained with 20 μL of 0.2% SRB in 1% acetic acid and incubated at room temperature for 30 minutes and unbound SRB was removed by washing 5 times with 1% acetic acid and air-dried. Finally, bound SRB stain was solubilized in 50 μL of 50 μM Tris buffer before taking an optical density measurement at 570 nm using the BioTek microplate reader. The growth inhibition data were expressed as the percentage of cell survival calculated from the background corrected absorbance. The surviving fraction of cells was determined by dividing the mean absorbance values of the test agent-treated samples by the mean absorbance values of untreated control. […]

Test [3] relates to Caki-2. Kind of test: Cell proliferation assay (MTS or SRB), Caki-2. Type of test: cell-based. The note with it: Homo sapiens, 72 h; Caki-2, Kidney, 3 days; read-out: IC50 (cell growth inhibition). The procedure:
as §1, §2, §3

Test [4] relates to MCF-7. Kind of test: Cell proliferation assay (MTS or SRB), MCF-7. Type of test: cell-based. The note with it: Homo sapiens, MCF7, 72 h; MCF-7, Breast, 3 days; read-out: IC50 (cell growth inhibition). The procedure:
as §1, §2, §3

Test [5] has as its system PANC-1. Briefly: Cell proliferation assay (MTS or SRB), PANC-1. Type of test: cell-based. The note with it: Homo sapiens, 72 h; PANC-1, Pancreatic, 3 days; read-out: IC50 (cell growth inhibition). The procedure:
as §1, §2, §3

Test [6] relates to MIA PaCa-2. Briefly: Cell proliferation assay (MTS or SRB), MIA PaCa-2. Type of test: cell-based. The conditions noted are these: Homo sapiens, 72 h; MIA PaCa-2, Pancreatic, 3 days; read-out: IC50 (cell growth inhibition). As for the experimental part: as §1, §2, §3
Test [7] deals with HT-29. Kind of test: Cell proliferation assay (MTS or SRB), HT-29. Type of test: cell-based, human. The note with it: Homo sapiens, 72 h; HT-29, Colon, 3 days; read-out: IC50 (cell growth inhibition). As for the experimental part:
as §1, §2, §3

Test [8] relates to HCT-116. Briefly: Cell proliferation assay (MTS or SRB), HCT-116. Type of test: cell-based, human. The note with it: Homo sapiens, 72 h; HCT-116, Colon, 3 days; read-out: IC50 (cell growth inhibition). As for the experimental part:
as §1, §2, §3

Test [9] has as its system H460. Briefly: Cell proliferation assay (MTS or SRB), H460. The note with it: Homo sapiens, NCI-H460, 72 h; H460, Lung, 3 days; read-out: IC50 (cell growth inhibition). Type of test: cell-based. As for the experimental part: as §1, §2, §3
The subject of test [10] is A549. Kind of test: Cell proliferation assay (MTS or SRB), A549. The note with it: Homo sapiens, 72 h; A549, Lung, 3 days; read-out: IC50 (cell growth inhibition). The test is classed as cell-based. The procedure:
as §1, §2, §3

Test [11] deals with SK-MEL-2. Kind of test: Cell proliferation assay (MTS or SRB), SK-MEL-2. Type of test: cell-based. The note with it: Homo sapiens, 72 h; SK-MEL-2, Skin (melanoma), 3 days; read-out: IC50 (cell growth inhibition). The procedure:
as §1, §2
Next, cells were stained with 20 μL of 0.2% SRB in 1% acetic acid and incubated at room temperature for 30 minutes and unbound SRB was removed by washing 5 times with 1% acetic acid and air-dried. Finally, bound SRB stain was solubilized in 50 μL of 50 μM Tris buffer before taking an optical density measurement at 570 nm using the BioTek microplate reader. The growth inhibition data were expressed as the percentage of cell survival calculated from the background corrected absorbance. The surviving fraction of cells was determined by dividing the mean absorbance values of the test agent-treated samples by the mean absorbance values of untreated control.
Raw data were acquired using a BioTek Synergy™ HT Multiple Detection microplate reader and imported into Microsoft Excel for analysis. The average signal of each treatment was calculated from the triplicates after subtracting the blank signals. The percentage survival values were calculated using the following formula: % survival=(average signal of the drug treatment/average signal of untreated controls)×100. The data were finally imported into the Prism 4 software (GraphPad Software, San Diego, Calif.) to generate the dose-activity curves using non-linear regression curve fit and to calculate the IC50 values.

For test [12], the system named is C33A. Kind of test: Cell proliferation assay (MTS or SRB), C33A. The test is classed as cell-based, human. The conditions noted are these: Homo sapiens, C-33-A, 72 h, Cervical, 3 days, read-out: IC50 (cell growth inhibition). As for the experimental part:
as §1, §2, §3

Test [13] deals with SiHa. Kind of test: Cell proliferation assay (MTS or SRB), SiHa. The test is classed as cell-based, human. The note with it: Homo sapiens, 72 h, Cervical, 3 days, read-out: IC50 (cell growth inhibition). The procedure:
as §1, §2, §3

In test [14] the test system is SK-OV-3. Kind of test: Cell proliferation assay (MTS or SRB), SK-OV-3. Type of test: cell-based, human. The note with it: Homo sapiens, 72 h; SK-OV-3, Ovarian, 3 days; read-out: IC50 (cell growth inhibition). The procedure: as §1, §2, §3
Test [15] concerns OVCAR-3. Kind of test: Cell proliferation assay (MTS or SRB), OVCAR-3. Type of test: cell-based, human. The note with it: Homo sapiens, 72 h; OVCAR-3, Ovarian, 3 days; read-out: IC50 (cell growth inhibition). As for the experimental part: as §1, §2, §3
Test [16] relates to SK-HEP-1. Briefly: Cell proliferation assay (MTS or SRB), SK-HEP-1. Type of test: cell-based. The conditions noted are these: Homo sapiens, SK-HEP1, 72 h; SK-HEP-1, Liver, 3 days; read-out: IC50 (cell growth inhibition). The procedure: as §1, §2, §3
Test [17] has as its system Hep G2. Kind of test: Cell proliferation assay (MTS or SRB), Hep G2. The test is classed as cell-based. The note with it: Homo sapiens, HepG2, 72 h; Hep G2, Liver, 3 days; read-out: IC50 (cell growth inhibition). As for the experimental part: as §1, §2, §3
Test [18] concerns THLE-3. Kind of test: Cell proliferation assay (MTS or SRB), THLE-3. The test is classed as cell-based. The note with it: Homo sapiens, THLE3, 72 h; THLE-3, Liver (Normal), SV40 large T immortalized, 3 days; read-out: IC50 (cell growth inhibition). As for the experimental part: as §1
After incubation for 3 days at 37° C. in a humidified incubator, viable cells were measured either by MTS or SRB assay. […]
Next, cells were stained with 20 μL of 0.2% SRB in 1% acetic acid and incubated at room temperature for 30 minutes and unbound SRB was removed by washing 5 times with 1% acetic acid and air-dried. Finally, bound SRB stain was solubilized in 50 μL of 50 μM Tris buffer before taking an optical density measurement at 570 nm using the BioTek microplate reader. The growth inhibition data were expressed as the percentage of cell survival calculated from the background corrected absorbance. […]

Usually EC50 stands for the concentration at which the effect is half-maximal. By IC50 is commonly meant the concentration needed to halve the response being measured. With `CCCCCCCCCCCCCCCCOCCCOP(=O)(O)CO[C@H](CO)Cn1ccc(N)nc1=O` [CMX001], the EC50 worked out at 0.016 µM in [1] (virus dilution 1:10), 0.0035 µM in [1] (virus dilution 1:50) and 0.0037 µM in test [1] (virus dilution 1:100). Moreover, the “activity against BK virus replication” value in [1] (RPTECs, in words) is on record as “good activity”. Further, the half-inhibitory concentration (IC50) in [2] amounted to 68.6 µM; in test [3], 60 µM; in test [4], 62 µM; in [5] it was 91.5 µM; in [6] it was 14.6 µM; in test [7] it was 48.6 µM. In addition, the IC50 in [8] is 20.9 µM; in [9] it was 12.4 µM; in [10], > 100 µM; in test [11], 70.5 µM; in test [12] it was 14.3 µM; in test [13], 43.1 µM. Moreover, the concentration for half-maximal inhibition (IC50) in test [14] was 95.5 µM; in [15] it was 73.3 µM; in test [16] it was 7.4 µM; in [17] it was 37.9 µM; in test [18] it was 7 µM.
As for `Nc1ccn(C[C@@H](CO)OCP(=O)(O)O)c(=O)n1` [cidofovir], the concentration for a half-maximal effect (EC50) came out at 2 µM in test [1] (virus dilution 1:10, read-out: EC50); 0.65 µM in test [1] (virus dilution 1:50, read-out: EC50); 0.44 µM in test [1] (virus dilution 1:100, read-out: EC50). Moreover, the half-inhibitory concentration (IC50) in test [2], in [3], in test [4], in test [5], in [6] and in [7] was > 100 µM throughout. The half-maximal inhibitory concentration (IC50) in [8] is > 100 µM; in test [9], > 100 µM; in [10], > 100 µM; in test [11], > 100 µM; in test [12], 96.7 µM; in test [13] it was 100 µM. In addition, the IC50 in test [14], in [15], in test [16], in [17] and in test [18] was > 100 µM each time.

The record behind these values is patent US20120164104A1, “Composition and Methods of Treating Viral Infections and Viral Induced Tumors” (Chimerix, Inc., priority 2009, published 2012).
